The values below come from patent US20090215710A1, “CARBOHYDRATE BASED TOLL-LIKE RECEPTOR (TLR) ANTAGONISTS” (RELIANCE LIFE SCIENCES PVT. LTD., priority 2007, published 2009).

The subject of assay [1] is RAW264.7 cells. Briefly: LPS induced nitric oxide (NO) release in RAW 264.7 cells (Griess reaction). The class given is cell-based. The conditions noted are these: RAW264.7, LPS 250 ng/ml. As to the method: RAW264.7 cells provide an excellent model for evaluations of potential inhibitors on the pathway leading the induction of iNOS and NO production. Nitric oxide production was determined in RAW264.7 cells from the National Center of Cell Science (NCCS, Pune) cultured in color-free DMEM with standard supplements by measuring the amount of nitrite from cell culture supernatant. RAW264.7 cells (5×10^4 per well) were stimulated for 24 hr with or without LPS (250 ng/ml) in the absence of presence of the RSCL-0409. Nitrite was then measured using the Griess reaction. 100 μl of cell culture supernatant was reacted with 100 μl of Griess reagent followed by spectrophotometric measurement at 550 nm. Nitrite concentrations in the supernatants were determined by comparison with a sodium nitrite standard curve. Alongside RSCL-0409 we also used known strong antioxidants (Vit C, Ascorbic acid, Catechin and Trolox) which inhibit NO to comparative antioxidant efficiency.
In general terms: Nitrite, measured by Griess reagent, commonly stands in for NO production.

For assay [2], the system named is TNF-α. Briefly: LPS induced TNF-α release in human PBMC. The class given is cell-based. To be noted: PBMC isolated from human blood. The source says: In order to evaluate the ability of RSCL-0409 to inhibit LPS induced TNF-α secretion in a physiological scenario, the present invention has tested the same in PBMC isolated from human blood (FIG. 3). […] The TNF levels were not detectable in PBMCs without LPS and with RSCL-0409 treatment alone, indicating its specificity in LPS induced TNF-α through a TLR mediated process. ***P<0.001 value is for LPS treated vs. RSCL-0409 treated.

Assay [3] concerns Balb/c mice. The assay can be described thus: LPS induced TNF-α release in Balb/c mice, treatment post LPS. The class given is in vivo. To be noted: 30 min post LPS (225 μg i.p.). The protocol: Here we have stimulated the inflammation process in mice with an injection of LPS (225 μg) intraperitoneally and 30 min post LPS, we have challenged the ability of RSCL-0409 (10 mg/kg, 20 mg/kg) to inhibit the TNF-α secretion.

Assay [4] has as its system TLR related genes (TIRAP, IRAK1, IRAK4, TRAF6, TRIF). Briefly: mRNA expression of TLR related genes in LPS stimulated THP-1 cells (PCR). Type of assay: cell-based, human. The conditions noted are these: THP-1, LPS 250 ng/ml 1 hr. The protocol: Serum-starved THP-1 cells were stimulated with LPS (250 ng/ml) for 1 hr in the presence and absence of RSCL-0409. Total RNA was isolated from treated cells post LPS exposure. The cDNA was used for PCR against specific primers for the TLR related genes and β-actin was used as internal control.
To rule out the possibility of a TRIF dependent pathway, a MyD88 independent path, we have checked its expression levels also in the treated cells.

In assay [5] the test system is NEMO and IκB-α. Briefly: Immunoblot of NEMO and IκB-α in LPS stimulated THP-1 cells. The class given is cell-based, human. The conditions noted are these: THP-1, LPS 250 ng/ml. The protocol: NF-κB/IκB complexes are present in the cytoplasm under unstimulated conditions. Following stimulation with LPS, we see phosphorylation and subsequent degradation of IκB allowing the free NF-κB to translocate into the nucleus to activate genes with NF-κB binding regions. Therefore, the effect of RSCL-0409 on blocking of NF-κB nuclear translocation was checked. Serum-starved THP-1 cells were stimulated with LPS (250 ng/ml) for the indicated time (FIG. 7a) in the presence and absence of RSCL-0409 ([…]). RSCL-0409 treatment was 1 hr prior to LPS treatment. Total protein was isolated from the treated cells, and an equal amount of protein from each sample was used for immunoblots to determine protein levels of NEMO and IκB-α. The blot was stripped and reprobed with an anti-ERK-1/2 antibody to ensure equal loading. […] This leads to inhibition of phosphorylation and further blocking p65 dissociation from IκB-α.

Assay [6] relates to TNF. The assay can be described thus: Pre-screen for TNF inhibition activity of synthesized molecules (Table 1). Type of assay: cell-based.
Assay [7] deals with IL-6 mRNA. The assay can be described thus: IL-6 mRNA expression in LPS stimulated THP-1 cells (real-time PCR). The class given is cell-based, human. To be noted: THP-1, LPS 250 ng/ml 1 hr. As to the method:
To determine whether the suppressive effect of RSCL-0409 on the cytokine production occurs at mRNA expression level, quantitative real-time PCR was used to examine TNF-α and IL-6 mRNA expression in THP-1 cells stimulated with LPS. THP-1 cells (3×10^6 cells/well) were stimulated with 250 ng/ml LPS in the presence or absence of RSCL-0409 at indicated concentrations for the 1 hr. Total RNA was isolated from these cells and cDNA was synthesized. LPS treated cells acted as positive control. All quantitative real-time PCR (TaqMan™) primers and probes were obtained from Applied Biosystems (ABI), Weiterstadt, Germany. For detection of TNF-α, pre-developed assay reagents (Universal master mix as obtained from Applied Biosystems included all reagents including Taq-polymerase apart from specific primers and probes) were used. The PCR was performed utilizing 1 μl cDNA per reaction in triplicates of 25 μl volume on an ABI 7500 Realtime PCR machine using a 2-step PCR protocol.
Quantization of mRNA was performed using the comparative threshold cycle method and analysed using standard software and expressed in fold change. The fold change of TNF-α (FIG. 5a) and IL-6 (FIG. 5b) mRNA in treated cells over control was obtained after correction for the amount of β-actin. […] The expression levels of both TNF and IL-6 decreased following 1 hr pretreatment with RSCL-0409 in the presence of LPS. […]
Background: In qPCR the cycle at which signal appears reflects the starting amount.

With `COc1ccc(OC2OC3COC(c4ccccc4)OC3C(OC3OC(COC(=O)CCC(C)=O)C(OC(=O)CCl)C(OC(C)=O)C3OC(C)=O)C2NC(=O)C(Cl)(Cl)Cl)cc1` [RSCL-0409, p-Methoxy phenyl-O-(2,3-di-O-acetyl-4-O-chloroacetyl-6-O-levulinoyl-β-D-glucopyranosyl)-(1-3)-2-deoxy-2-trichloroacetamido-4,6-O-benzylidene-α-D-glucopyranoside], the “anti-oxidant activity versus reference antioxidants (Vit C, Ascorbic acid, Catechin and Trolox)” value in assay [1] is “far more potent”. For the same compound, the “NO secretion induced by LPS” value in assay [1] (24 hr) is on record as “inhibited by RSCL-0409 in a concentration dependent manner”. For the same compound, in assay [2], the “LPS induced TNF-α secretion” value was “inhibitory effects similar to that seen in THP-1 cells”. In addition, the “inhibition of TNF secretion” value in assay [3] (10 mg/kg) was approximately 39%; in assay [3] (20 mg/kg), approximately 47%. Moreover, in assay [4], the “TRIF mRNA levels” value is on record as “remained unaffected”. Further, in assay [4], the “expression level of TRAF6” value is listed as “not down regulated significantly”. Moreover, the “mRNA expression levels of TIRAP, IRAK1 and IRAK4” value in assay [4] was “inhibits the mRNA expression levels of TIRAP, IL-1R-associated kinase1 (IRAK1) and IRAK4”. Moreover, the “activation of NEMO” value in assay [5] is reported as “blocked signaling to NEMO”. Moreover, the “degradation of IκB-α” value in assay [5] is “accumulation of IκB-α”. Also, the “% TNF Inhibition” value in assay [6] (1 uM) turned out to be 0%; in assay [6] (10 uM), 32%; in assay [6] (50 uM) it was 81%; in assay [6] (100 uM), 91%. Further, the “IL-6 mRNA expression” value in assay [7] is “The same was observed with IL-6 also in a concentration dependent manner”.
